Our source for the TGI and GI50 values is PubChem BioAssay (NCI).

Among the test systems are SNB-75 CNS; A498 renal; COLO 205 colon; SNB-19 CNS; OVCAR-4 ovarian; RPMI-8226 leukemia; SK-OV-3 ovarian; MALME-3M melanoma; KM12 colon.
Common to all, as to assay: inhibition of tumour cell growth, NCI panel, 48 h

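Results reflect a 48-hour exposure of cells in 96-well plates to compound at five concentrations. GI50: concentration for 50% inhibition of growth. TGI is the concentration that stops growth completely.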

With `CCOC(=O)C1=C(OC(OCC)C(CC)[Se]c2ccccc2)CCCC1` (configuration not stated), the TGI with SNB-75 CNS was 54.8 µM; in the test with A498 renal, greater than 100 µM; with COLO 205 colon, greater than 100 µM; in the test with SNB-19 CNS it was greater than 100 µM; in the test with OVCAR-4 ovarian, 33 µM; with RPMI-8226 leukemia it was 39.3 µM. In addition, the TGI in the test on SK-OV-3 ovarian is greater than 100 µM; in the test on MALME-3M melanoma, 97.7 µM; in the test with KM12 colon, greater than 100 µM.

For `O=C1CCC2(c3ccc(F)cc3)Nc3cc(Cl)ccc3N12` (configuration not stated), the TGI in the test with SNB-75 CNS, in the test on A498 renal, with COLO 205 colon, with SNB-19 CNS, in the test on OVCAR-4 ovarian and with RPMI-8226 leukemia was greater than 100 µM in each case. The TGI in the test on SK-OV-3 ovarian, in the test on MALME-3M melanoma and with KM12 colon was greater than 100 µM throughout.

In the case of `NC(CCC(=O)NC(CSSCCCCS(=O)O)C(=O)NCC(=O)O)C(=O)O` (configuration not stated), the TGI in the test on SNB-75 CNS, in the test on A498 renal, with COLO 205 colon, with SNB-19 CNS, in the test with OVCAR-4 ovarian and in the test on SK-OV-3 ovarian was greater than 100 µM each time. Moreover, the TGI in the test on MALME-3M melanoma and in the test with KM12 colon was greater than 100 µM in each case.

On to `CSC(C1c2ccccc2N(c2ccc(C)cc2)C2=NC(=O)N(C)C(=O)C21Cl)S(=O)(=O)c1ccc(C)cc1` (configuration not stated), for which the TGI was found to be 60 µM in the test on SNB-75 CNS; 92.7 µM in the test on A498 renal; 36.6 µM in the test on COLO 205 colon; 85.2 µM in the test on SNB-19 CNS; 34.6 µM in the test on OVCAR-4 ovarian; 57 µM in the test on RPMI-8226 leukemia. Besides, the TGI in the test on SK-OV-3 ovarian turned out to be 87.6 µM; with MALME-3M melanoma, 32.6 µM.

Consider `CCOC(=O)[C]1([Bi]([CH3])[CH3])N=NC(C(=O)OC)=C1C(=O)OC` (configuration not stated), for which the GI50 in the test with SNB-75 CNS is 15.6 µM; in the test on A498 renal it was 25.7 µM; with COLO 205 colon, 19.8 µM; with SNB-19 CNS, 26 µM; in the test with OVCAR-4 ovarian it was 42.4 µM; with RPMI-8226 leukemia it was 21.5 µM. Moreover, the figures for the GI50 with SK-OV-3 ovarian, in the test on MALME-3M melanoma and in the test with KM12 colon were greater than 100 µM, 17 µM and 21.5 µM, respectively. In addition, the TGI in the test with SNB-75 CNS was 29.9 µM; in the test with A498 renal it was 49 µM; in the test on COLO 205 colon it was 35.9 µM; with SNB-19 CNS, 66 µM; with OVCAR-4 ovarian, greater than 100 µM; in the test on RPMI-8226 leukemia it was 67.2 µM. Further, the figures for the TGI in the test with SK-OV-3 ovarian, in the test with MALME-3M melanoma and in the test with KM12 colon were greater than 100 µM, 31.8 µM and 49.2 µM, respectively.

Regarding `COC(=O)c1c/c(=N\NC(=O)CC(=O)Nc2ccccc2OC)c2ccccc2o1`, the TGI in the test on SNB-75 CNS, in the test with A498 renal, in the test with COLO 205 colon, with SNB-19 CNS, with OVCAR-4 ovarian and with RPMI-8226 leukemia was greater than 100 µM each time. In addition, the TGI with SK-OV-3 ovarian and in the test on KM12 colon was greater than 100 µM throughout.

Turning to `OCC(O)CC[CH2][Sn]([Br])([c]1ccccc1)[c]1ccccc1` (configuration not stated), the GI50 in the test on SNB-75 CNS, in the test with COLO 205 colon, with SNB-19 CNS, in the test on OVCAR-4 ovarian, with RPMI-8226 leukemia and with SK-OV-3 ovarian was greater than 100 µM each time. Moreover, in the test with KM12 colon, the GI50 is greater than 100 µM. In addition, the TGI with SNB-75 CNS, with COLO 205 colon, in the test with SNB-19 CNS, in the test with OVCAR-4 ovarian, with RPMI-8226 leukemia and in the test on SK-OV-3 ovarian was greater than 100 µM in each case. This molecule also returned a TGI in the test on KM12 colon greater than 100 µM.

With `Cc1cc2c(cc1C)[n+](=O)c(C(=O)C/C(=N/NC(=O)CC#N)C(=O)Nc1ccccc1C(F)(F)F)c(C)n2[O-]`, the TGI with SNB-75 CNS, in the test with A498 renal, in the test with COLO 205 colon, in the test on SNB-19 CNS, in the test on OVCAR-4 ovarian and in the test on SK-OV-3 ovarian was greater than 100 µM each time. Moreover, the TGI in the test on MALME-3M melanoma and with KM12 colon was greater than 100 µM each time.

As for `O=c1c2cc([N+](=O)[O-])ccc2sc2ccsc12`, the TGI in the test with SNB-75 CNS, with A498 renal, with COLO 205 colon, with SNB-19 CNS, in the test with OVCAR-4 ovarian and with RPMI-8226 leukemia was greater than 100 µM each time. In addition, the TGI with SK-OV-3 ovarian, in the test with MALME-3M melanoma and with KM12 colon was greater than 100 µM in each case.

Take `O=C1/C(=C/c2ccccc2)CNC/C1=C\c1ccccc1`: the TGI with SNB-75 CNS was determined as 11.6 µM; in the test with A498 renal, 4.57 µM; in the test on COLO 205 colon, 3.11 µM; in the test on SNB-19 CNS, 11.9 µM; in the test with OVCAR-4 ovarian, 2.9 µM; in the test with RPMI-8226 leukemia, 0.787 µM. Also, the values for the TGI in the test on SK-OV-3 ovarian, in the test on MALME-3M melanoma and in the test on KM12 colon were 6.36 µM, 9.3 µM and 2.66 µM, respectively.

Regarding `COC12C=C(C)C(CC1)CC2C(=O)O` (configuration not stated), the TGI in the test on SNB-75 CNS, in the test on A498 renal, in the test with COLO 205 colon, with SNB-19 CNS, in the test on OVCAR-4 ovarian and in the test on RPMI-8226 leukemia was greater than 100 µM in each case. For the same molecule, the TGI with SK-OV-3 ovarian, in the test with MALME-3M melanoma and in the test with KM12 colon was greater than 100 µM in each case.

Consider `CC1=NN(C(=O)Nc2ccccc2)C(=O)C2CCC(=O)N12` (configuration not stated), for which the TGI in the test with SNB-75 CNS, in the test with A498 renal, in the test with COLO 205 colon, in the test on SNB-19 CNS, in the test with OVCAR-4 ovarian and with RPMI-8226 leukemia was greater than 100 µM throughout. The TGI in the test with SK-OV-3 ovarian and in the test on KM12 colon was greater than 100 µM in each case.

Take `O=C1C2c3[nH]c4ccccc4c3C3CCCCCCC3C2C(=O)N1c1ccccc1` (configuration not stated): the TGI stood at 5.33 µM in the test with SNB-75 CNS; 39.9 µM in the test with A498 renal; 28.6 µM in the test on COLO 205 colon; 15.4 µM in the test with OVCAR-4 ovarian; 68.3 µM in the test with RPMI-8226 leukemia; 6.37 µM with SK-OV-3 ovarian. The values for the TGI in the test with MALME-3M melanoma and in the test with KM12 colon were 12.7 µM and greater than 100 µM, respectively.

In the case of `C/C(CC(=O)Nc1ccc(C)cc1C)=N/N=C(N)N`, the TGI in the test with SNB-75 CNS, in the test with A498 renal, in the test on COLO 205 colon, in the test on RPMI-8226 leukemia, in the test on SK-OV-3 ovarian and in the test with MALME-3M melanoma was greater than 100 µM each time. This molecule registered a TGI with KM12 colon greater than 100 µM.
